The subject of series [1] is S. epidermidis ATCC 14990. Description: MIC/MBC broth microdilution, S. epidermidis. To be noted: Staphylococcus epidermidis, ATCC14990; S. epidermidis ATCC 14990, 24 h, 0.5 to 512 μg/mL. It is filed as cell-based. How it is done:
(§1) Compounds/extracts were tested against the following bacterial strains: Pseudomonas aeruginosa ATCC 27853, Staphylococcus aureus ATCC 29213, Staphylococcus epidermidis ATCC 14990, Streptococcus pyogenes ATCC 19615, Micrococcus luteus ATCC 4698. Prior to each in vitro bioassay, fresh cultures were obtained for each strain using the appropriate medium and incubation conditions as follows. Staphylococcus spp. and P. aeruginosa were grown on Mueller-Hinton (MH) agar (Liofilchemsrl, Italy) for 24 h at 37° C., while M. luteus was grown in Tryptic Soy agar (TSA, Liofilchem srl, Italy) for 24 h at 30° C. and S. pyogenes on TSA with 5% defibrinated sheep blood (Thermo Fisher Scientific, USA) for 24 h at 37° C. in an atmosphere of 5% CO2.
(§2) Minimum inhibitory concentrations (MICs) of compounds/extracts were determined using a broth microdilution technique, following the recommendations of the Clinical and Laboratory Standards Institute. Briefly, fresh colonies of each strain were used to prepare the respective inocula with an optical density at 600 nm (OD600) equal to 0.1 (approximately 1^10^8 CFU/mL). For all strains, cation-adjusted Mueller-Hinton broth (MHB2, Sigma-Aldrich, USA) was used, but in the case of S. pyogenes, MBH2 was previously supplemented with 2.5% lysed horse blood (Thermo Fisher Scientific, USA). In 96-well, U-bottom, microplates, each compound was serially diluted in the respective medium from stock solutions (10 mg/mL in DMSO) to achieve in-test concentrations ranging from 0.5 to 512 μg/mL. Wells were inoculated so that the final concentration in eachwas of 5×10^5 CFU/mL. The microplates were incubated at 37° C. for 24 h. The MIC was defined as the lowest concentration of compound inhibiting the bacterial growth visible to the naked eye.
For orientation: Dilution methods test growth across graded concentrations, often in twofold steps.

In a further series the test system is S. aureus ATCC 29213. Description: MIC/MBC broth microdilution, S. aureus. In kind it is cell-based. To be noted: Staphylococcus aureus, ATCC29213; S. aureus ATCC 29213, 24 h, 0.5 to 512 μg/mL. How it is done: as §1, §2
The test system of the next series is P. aeruginosa ATCC 27853. Description: MIC/MBC broth microdilution, P. aeruginosa. To be noted: Pseudomonas aeruginosa, ATCC27853; P. aeruginosa ATCC 27853, 24 h, 0.5 to 512 μg/mL. In kind it is cell-based. How it is done:
as §1, §2

Series [2] is described as follows: Determination of solar protection factor (SPF), spectrophotometric, Mansur equation. It is filed as physicochemical. To be noted: for SPF: 1.0 mg in 5 mL ethanol, absorbance 290-320 nm, Mansur equation. The method, then:
Sample preparation 1.0 mg of all samples was weighed, transferred to a 5 mL volumetric flask, diluted to volume with ethanol, followed by ultra-sonication for 5 min. The absorption spectra of samples in solution were obtained in the range of 290 to 450 nm using 1 cm quartz cell, and ethanol as a blank. The absorption data were obtained in the range of 290 to 320, every 5 nm, and 3 determinations were made at each point, followed by the application of Mansur equation.
Where CF (correction factor) is 10, EE (A) is erythmogenic effect of radiation with wavelength λ, Abs is Spectrophotometric absorbance values at wavelength λ. The obtained absorbance values are multiplied with EE (λ)×1 (λ) and then their summation is taken and multiplied with correction factor to obtain the SPF values.

Another series concerns M. luteus ATCC 4698. Description: MIC/MBC broth microdilution, M. luteus. It is filed as cell-based. Particulars: Micrococcus luteus, ATCC4698; M. luteus ATCC 4698, 24 h, 0.5 to 512 μg/mL. The method, then: as §1, §2
The nature of series [3]: Cytotoxicity to human fibroblasts and keratinocytes, MTT assay. Particulars: HaCat, HFF-1 and Heka cells, 0.78-100 μM. It is filed as cell-based. How it is done:
For this purpose, immortalized human foreskin fibroblasts HFF-1 were grown as monolayers from passage number 9-18 and maintained at 37° C. in an atmosphere of 5% CO2. For routine maintenance, the cells were cultured in 22.1 cm^2 plates as monolayers and maintained in Dulbecco's Modified Eagle Medium (DMEM, from Cell Lines Service), supplemented with 10% fetal bovine serum (FBS, from CLS) and 1% of antibiotic/antimycotic solution (100 units/mL of penicillin, 10 mg/mL of streptomycin and 0.25 mg/mL of amphotericin B from Sigma-Aldrich, St. Louis, MO, United States). The medium was replaced every two days and the cells were harvested every two weeks.
The cytotoxicity of the anthocyanins derivatives to HFF-1, Heka, and HaCat cells was evaluated using the standard MTT assay. Briefly, cells were seeded at a density of 5×10^4 cells or 1.5×10^4 cells/well onto 96-well plates and incubated at 37° C. in a 5% CO2 atmosphere. Cells were allowed to grow for 24 h, and serially diluted solutions of the different compounds (0.78-100 μM) were added to the wells. Then, cells were incubated for 48 h at 37° C., after which wells were washed once with phosphate buffered saline solution (PBS, Sigma-Aldrich, St. Louis, MO, United States), followed by addition of 0.45 mg/mL of MTT solution to each well. Crystals were allowed to form for 2 h. […] Absorbance was read at 570 nm.
A general note: Tetrazolium assays rely on reduction of a dye to a coloured formazan, in cell work by metabolically active cells.

Another series concerns S. pyogenes ATCC 19615. Description: MIC/MBC broth microdilution, S. pyogenes. To be noted: Streptococcus pyogenes, ATCC19615; S. pyogenes ATCC 19615, 24 h, 0.5 to 512 μg/mL. In kind it is cell-based. The method, then:
as §1, §2

Where only a bound is given, the exact number is not on record here.

Consider `COc1cc(-c2[o+]c3cc(O)cc4c3c(c2OC2OC(CO)C(O)C(O)C2O)C=C(C(=O)O)O4)cc(OC)c1O` (centres unmarked) [II-B, Carboxypyranomalvidin-3-glucoside], for which the MIC (in series [1]; in the series on S. aureus ATCC 29213; in the series on P. aeruginosa ATCC 27853; in the series with M. luteus ATCC 4698; in the series with S. pyogenes ATCC 19615) was above 512 µg/mL in each case. Further, the “UV protection (0.2 mg/mL)” value in series [2] (0.2 mg/mL) was 13.92 ± 0.04. In series [2], this compound registered an SPF of 13.92 ± 0.04. Besides, the IC50 (in general, the point on the concentration scale where inhibition reaches its midpoint) at 48 h in series [3] is above 100 µM.

Consider `COc1cc(-c2[o+]c3cc(O)cc4c3c(c2OC2OC(CO)C(O)C(O)C2O)C=C(/C=C/c2c(O)cc(O)c3c2OC(c2ccc(O)c(O)c2)C(O)C3)O4)cc(OC)c1O` (centres unmarked) [VI-B, Vinylpyranomalvidin-3-O-glucoside-cathechin], for which the SPF in series [2] is 8.35 ± 0.06.

The compound `CN(C)c1ccc(/C=C/C=C/C2=Cc3c(OC4OC(CO)C(O)C(O)C4O)c(-c4ccc(O)c(O)c4)[o+]c4cc(O)cc(c34)O2)cc1` (centres unmarked) [VIII-A, 4-(Dimethylamino)-cinnamyl-10-butadienylidene-pyranocyanidin-3-O-glucoside] came in with an SPF in series [2] of 14.78 ± 0.02.

Turning to `CN(C)c1ccc(C2=Cc3c(OC4OC(CO)C(O)C(O)C4O)c(-c4ccc(O)c(O)c4)[o+]c4cc(O)cc(c34)O2)cc1` (centres unmarked) [V-C, Pyranocyanidin-3-glucoside-(4-dimethylamino)-cinnamyl], the SPF in series [2] is 13 ± 0.04.

In series [2], “Malvidin-3-O-glucoside-4-vinylcatechol [V-B]” registered an SPF of 10.02 ± 0.00.

As to `O=C(O)C1=Cc2c(OC3OC(CO)C(O)C(O)C3O)c(-c3ccc(O)c(O)c3)[o+]c3cc(O)cc(c23)O1` (centres unmarked) [II-A, Carboxypyranocyanidin-3-glucoside], the MIC (in series [1]; in the series with S. aureus ATCC 29213; with P. aeruginosa ATCC 27853; with M. luteus ATCC 4698; in the series on S. pyogenes ATCC 19615) was above 512 µg/mL throughout. In addition, in series [2], the SPF came to 20.71 ± 0.18.

In the case of “4-(Dimethylamino)-cinnamyl-10-vinylene-pyranomalvidin-3-glucoside [VII-B]”, in series [2], the SPF stood at 15.02 ± 0.07.

Take `CC1=Cc2c(OC3OC(CO)C(O)C(O)C3O)c(-c3ccc(O)c(O)c3)[o+]c3cc(O)cc(c23)O1` (centres unmarked) [III-A, Methylpyranocyanidin-3-glucoside]: the minimal inhibitory concentration (MIC) (in series [1]; against S. aureus ATCC 29213; in the series on P. aeruginosa ATCC 27853; in the series with M. luteus ATCC 4698; against S. pyogenes ATCC 19615) was above 512 µg/mL throughout. The SPF in series [2] came out at 18.53 ± 0.15.

The compound “Cyanidin-3-O-glucoside-4-vinylcatechol [V-A]” showed an SPF in series [2] of 24.00 ± 0.01.
